In patent US11339171B2, “MDM2 inhibitors” (Gan & Lee Pharmaceuticals, priority 2017, dated 2022) one finds IC50 data, which are given here for 16 compounds.

The target in one experiment is T1, MDM2 (Homo sapiens, UniProt Q00987).
T1 construct: made in house
Description: Inhibition test of MDM2-P53 (GST-MDM2, Biotin-P53, Anti-GST-Tb, SA-XL665). It is filed as binding. The essentials: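 Compounds, serially diluted 5-fold (twelve concentrations), were shaken for 90 min at 25° C with a mix of GST-MDM2 (4 nM final), Biotin-P53, anti-GST-Tb and SA-XL665. Buffer: 1×PBS, 0.1% BSA, 5 mM DTT, 1 mM AEBSF; signal read on a microplate reader.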

For experiment [1], the system named is human osteosarcoma cell line SJSA-1. The experiment can be described thus: Inhibition of proliferation of human osteosarcoma cell line SJSA-1 (DAPI staining, In Cell Analyzer). To be noted: Homo sapiens, SJSA-1, 72 h, read-out: IC50 (nM), inhibitory activity on proliferation of human osteosarcoma cell line SJSA-1, SJSA-1, incubated 72 h.

SMILES strings stand for the structures.

T1 sequence (Q00987 whole entry): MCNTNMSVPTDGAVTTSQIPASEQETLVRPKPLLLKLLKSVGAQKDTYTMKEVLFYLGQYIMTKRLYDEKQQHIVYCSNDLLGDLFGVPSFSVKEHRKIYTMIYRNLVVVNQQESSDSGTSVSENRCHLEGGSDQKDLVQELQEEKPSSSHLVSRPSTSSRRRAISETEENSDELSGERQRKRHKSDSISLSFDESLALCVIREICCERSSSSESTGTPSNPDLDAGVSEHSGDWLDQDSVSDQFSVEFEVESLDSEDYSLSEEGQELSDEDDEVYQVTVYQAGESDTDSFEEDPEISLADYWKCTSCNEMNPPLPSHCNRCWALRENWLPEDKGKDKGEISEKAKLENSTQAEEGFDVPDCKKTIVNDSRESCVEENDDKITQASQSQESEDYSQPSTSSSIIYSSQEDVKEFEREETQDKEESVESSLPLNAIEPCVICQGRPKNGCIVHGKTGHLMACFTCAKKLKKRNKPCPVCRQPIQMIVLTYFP

Consider `COc1ncc(-c2nc3c(n2C(C)C)[C@]2(C(=O)Nc4cc(Cl)ccc42)N(c2cc(C)cc(Cl)c2)C3=O)c(OC)n1` [Example R-51, (R)-6-chloro-5′-(3-chloro-5-methylphenyl)-2′-(2,4-dimethoxypyrimidin-5-yl)-3′-isopropyl-3′H-spiro[dihydroindole-3,4′-pyrrolo[3,4-d]imidazole]-2,6′(5′H)-dione], for which the IC50 turned out to be 547 nM against MDM2 and 9520 nM in experiment [1].
For `COc1ccc(-c2nc3c(n2C(C)C)[C@]2(C(=O)Nc4cc(Cl)ccc42)N(c2cc(Cl)c(=O)n(C)c2)C3=O)c(OC)c1` [Example R-52, (R)-6-chloro-5′-(5-chloro-1-methyl-6-oxo-1,6-dihydropyridin-3-yl)-2′-(2,4-dimethoxyphenyl)-3′-isopropyl-3′H-spiro[dihydroindole-3,4′-pyrrolo[3,4-d]imidazole]-2,6′(5′H)-dione], in that order: 540 nM and 22400 nM.
`COc1ccccc1-c1nc2c(n1C(C)C)[C@]1(C(=O)Nc3cc(Cl)ccc31)N(c1cc(Cl)c(=O)n(C)c1)C2=O` [Example R-53, (R)-6-chloro-5′-(5-chloro-1-methyl-6-oxo-1,6-dihydropyridin-3-yl)-3′-isopropyl-2′-(2-methoxyphenyl)-3′H-spiro[dihydroindole-3,4′-pyrrolo[3,4-d]imidazole]-2,6′(5′H)-dione]: the IC50 turned out to be 3770 nM against MDM2 and 77400 nM in experiment [1].
For `COc1ncc(-c2nc3c(n2C(C)C)[C@]2(C(=O)Nc4cc(Cl)ccc42)N(c2cccc(C)c2)C3=O)c(OC)n1` [Example R-55, (R)-6-chloro-2′-(2,4-dimethoxypyrimidin-5-yl)-3′-isopropyl-5′-(m-tolyl)-3′H-spiro[dihydroindole-3,4′-pyrrolo[3,4-d]imidazole]-2,6′(5′H)-dione], in that order: 437 nM and 9940 nM.
For `COc1ncc(-c2nc3c(n2C(C)C)[C@]2(C(=O)Nc4cc(Cl)ccc42)N(c2cc(C)ccc2C)C3=O)c(OC)n1` [Example R-56, (R)-6-chloro-2′-(2,4-dimethoxypyrimidin-5-yl)-5′-(2,5-dimethylphenyl)-3′-isopropyl-3′H-spiro[dihydroindole-3,4′-pyrrolo[3,4-d]imidazole]-2,6′(5′H)-dione], in that order: 155 nM and 3480 nM.
For `COc1cccc(F)c1-c1nc2c(n1C(C)C)[C@]1(C(=O)Nc3cc(Cl)ccc31)N(c1cc(Cl)ccc1C)C2=O` [Example R-57, (R)-6-chloro-5′-(5-chloro-2-methylphenyl)-2′-(2-fluoro-6-methoxyphenyl)-3′-isopropyl-3′H-spiro[dihydroindole-3,4′-pyrrolo[3,4-d]imidazole]-2,6′(5′H)-dione], in that order: 427 nM and 3960 nM.
Turning to `COc1cc(Cl)cc(N2C(=O)c3nc(-c4cnc(OC)nc4OC)n(C(C)C)c3[C@]23C(=O)Nc2cc(Cl)ccc23)c1` [Example R-58, (R)-6-chloro-5′-(3-chloro-5-methoxyphenyl)-2′-(2,4-dimethoxypyrimidin-5-yl)-3′-isopropyl-3′H-spiro[dihydroindole-3,4′-pyrrolo[3,4-d]imidazole]-2,6′(5′H)-dione], the IC50 worked out at 1430 nM against MDM2 and 5890 nM in experiment [1].
For `COc1ccc(-c2nc3c(n2C(C)C)[C@]2(C(=O)Nc4cc(Cl)ccc42)N(c2cc(Cl)cnc2C)C3=O)c(OC)c1` [Example R-61, (R)-6-chloro-5′-(5-chloro-2-methylpyridin-3-yl)-2′-(2,4-dimethoxyphenyl)-3′-isopropyl-3′H-spiro[dihydroindole-3,4′-pyrrolo[3,4-d]imidazole]-2,6′(5′H)-dione], in that order: 136 nM and 136 nM.
For `COc1ccc(C)cc1-c1nc2c(n1C(C)C)[C@]1(C(=O)Nc3cc(Cl)ccc31)N(c1cc(Cl)ccc1C)C2=O` [Example R-62, (R)-6-chloro-5′-(5-chloro-2-methylphenyl)-3′-isopropyl-2′-(2-methoxy-5-methylphenyl)-3′H-spiro[dihydroindole-3,4′-pyrrolo[3,4-d]imidazole]-2,6′(5′H)-dione], in that order: 252 nM and 4360 nM.
Regarding `COc1cc(N)ccc1-c1nc2c(n1C(C)C)[C@]1(C(=O)Nc3cc(Cl)ccc31)N(c1cc(Cl)ccc1F)C2=O` [Example R-66, (R)-2′-(4-amino-2-methoxyphenyl)-6-chloro-5′-(5-chloro-2-fluorophenyl)-3′-isopropyl-3′H-spiro[dihydroindole-3,4′-pyrrolo[3,4-d]imidazole]-2,6′(5′H)-dione], the values for the IC50 (at MDM2; in experiment [1]) were 85.9 nM and 3860 nM, respectively.
In the same order, the values of `COc1cc(N)ccc1-c1nc2c(n1C(C)C)[C@]1(C(=O)Nc3cc(Cl)ccc31)N(c1cc(F)cc(Cl)c1)C2=O` [Example R-67, (R)-2′-(4-amino-2-methoxyphenyl)-6-chloro-5′-(3-chloro-5-fluorophenyl)-3′-isopropyl-3′H-spiro[dihydroindole-3,4′-pyrrolo[3,4-d]imidazole]-2,6′(5′H)-dione] are 355 nM and 8490 nM.
In the same order, the values of `COc1cc(OC(C)C)ncc1-c1nc2c(n1C(C)C)[C@]1(C(=O)Nc3cc(Cl)ccc31)N(c1cc(Cl)ccc1C)C2=O` [Example R-69, (R)-6-chloro-5′-(5-chloro-2-methylphenyl)-2′-(6-isopropoxy-4-methoxypyridin-3-yl)-3′-isopropyl-3′H-spiro[dihydroindole-3,4′-pyrrolo[3,4-d]imidazole]-2,6′(5′H)-dione] are 636 nM and 6580 nM.
Take `COc1ccc(CC(=O)N(C)C)cc1-c1nc2c(n1C(C)C)[C@]1(C(=O)Nc3cc(Cl)ccc31)N(c1cc(Cl)ccc1C)C2=O` [Example R-70, (R)-2-(3-(6-chloro-5′-(5-chloro-2-methylphenyl)-3′-isopropyl-2,6′-dioxo-5′,6′-dihydro-3′H-spiro[dihydroindole-3,4′-pyrrolo[3,4-d]imidazole]-2′-yl)-4-methoxyphenyl)-N,N-dimethylacetamide]: the IC50 came out at 111 nM against MDM2 and 4210 nM in experiment [1].
For `COc1ccc(N2C(=O)c3nc(-c4ccc(N)cc4OC)n(C(C)C)c3[C@]23C(=O)Nc2cc(Cl)ccc23)cc1Cl` [Example R-71, (R)-2′-(4-amino-2-methoxyphenyl)-6-chloro-5′-(3-chloro-4-methoxyphenyl)-3′-isopropyl-3′H-spiro[dihydroindole-3,4′-pyrrolo[3,4-d]imidazole]-2,6′(5′H)-dione], in that order: 100 nM and 7020 nM.
On to `CCOc1cc(OC)c(-c2nc3c(n2C(C)C)[C@]2(C(=O)Nc4cc(Cl)ccc42)N(c2cc(Cl)ccc2C)C3=O)cn1` [Example R-72, (R)-6-chloro-5′-(5-chloro-2-methylphenyl)-2′-(6-ethoxy-4-methoxypyridin-3-yl)-3′-isopropyl-3′H-spiro[dihydroindole-3,4′-pyrrolo[3,4-d]imidazole]-2,6′(5′H)-dione], for which the IC50 against MDM2 is 214 nM; in experiment [1] it was 3480 nM.
In the same order, the values of `COc1cc(N)c(C)cc1-c1nc2c(n1C(C)C)[C@]1(C(=O)Nc3cc(Cl)ccc31)N(c1cc(Cl)ccc1C)C2=O` [Example R-74, (R)-2′-(4-amino-2-methoxy-5-methylphenyl)-6-chloro-5′-(5-chloro-2-methylphenyl)-3′-isopropyl-3′H-spiro[dihydroindole-3,4′-pyrrolo[3,4-d]imidazole]-2,6′(5′H)-dione] are 93.4 nM and 1840 nM.
